Measured values as given in patent EP0548790A1, “(1'S)-Hydroxyalkyloxapenem-3-carboxylic acids and their use as beta-lactamase inhibitors” (ELI LILLY AND COMPANY, priority 1991, dated 1993).

Assays:
E. coli TEM 1 = assay: agar diffusion test, inhibition zone diameter (Hemmhof), inhibitor alone and combined with Cefaclor; format: cell-based, E. coli W 311O3 R6K (TEM 1); conditions: for zone of inhibition at 10 µg/disc: Escherichia coli, TEM1, read-out: Hemmhofdurchmesser mm (E. coli TEM 1) I (10 mcg); for Hemmhofzuwachs, d.h. die Schutzwirkung: increase of zone with Cefaclor versus alone; for Eigenwirkung als Antibiotika: inhibitor alone; for Wirkung als Betalactamasehemmer gegen E. coli TEM 1: protection of Cefaclor against the bacterial enzyme
Source text: "like" bedeutet gleiche absolute Konfiguration zweier benachbarter Chiralitätszentren. Als Testkeim wurde ein besonders starker Betalactamase-Bildner verwendet. E. coli W 311O3 R6K (TEM 1) wurde deshalb mehrfach in einer Kulturlösung mit 2O mcg/ml Cefaclor bebrütet. Cefaclor allein (3O mcg) ergab einen Hemmhof von 16 mm, mit 1O mcg Clavulansäure kombiniert einen solchen von 22 mm Durchmesser.

[1] = test system: Penicillin resistenten Staph. aureus; conditions: comparison with Clavulansäure; from earlier filing EP 89117433.6; cited from earlier work
Pseudomonas aeruginosa = conditions: comparison with Clavulansäure; from earlier filing EP 89117433.6; cited from earlier work
[2] = target: T1, Cephalosporinasen aus Enterobacter cloacae (Enterobacter cloacae, UniProt P05364); conditions: reported in Amer. J. Med. 79 (suppl. 5B), 194 (1985); cited from earlier work
T1 construct: dagegen ist auch gegen diese Keime als Betalactamasehemmer wirksam; endogenous in cells
T1 sequence (P05364 21-381): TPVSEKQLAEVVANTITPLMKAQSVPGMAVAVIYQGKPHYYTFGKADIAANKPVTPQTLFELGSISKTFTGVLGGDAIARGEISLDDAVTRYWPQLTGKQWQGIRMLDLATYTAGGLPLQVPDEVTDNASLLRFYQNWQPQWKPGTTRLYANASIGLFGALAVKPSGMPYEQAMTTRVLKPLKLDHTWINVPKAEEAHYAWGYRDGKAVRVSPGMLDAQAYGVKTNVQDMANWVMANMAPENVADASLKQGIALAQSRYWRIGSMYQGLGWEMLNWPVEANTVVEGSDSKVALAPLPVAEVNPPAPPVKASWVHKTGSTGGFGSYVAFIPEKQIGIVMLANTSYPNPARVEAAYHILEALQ

[3] = target: T2, Cephalosporinasen aus Pseudomonas aeruginosa (Pseudomonas aeruginosa, UniProt P24735); conditions: reported in Amer. J. Med. 79 (suppl. 5B), 194 (1985); cited from earlier work
T2 construct: dagegen ist auch gegen diese Keime als Betalactamasehemmer wirksam; endogenous in cells
T2 sequence (P24735 27-397): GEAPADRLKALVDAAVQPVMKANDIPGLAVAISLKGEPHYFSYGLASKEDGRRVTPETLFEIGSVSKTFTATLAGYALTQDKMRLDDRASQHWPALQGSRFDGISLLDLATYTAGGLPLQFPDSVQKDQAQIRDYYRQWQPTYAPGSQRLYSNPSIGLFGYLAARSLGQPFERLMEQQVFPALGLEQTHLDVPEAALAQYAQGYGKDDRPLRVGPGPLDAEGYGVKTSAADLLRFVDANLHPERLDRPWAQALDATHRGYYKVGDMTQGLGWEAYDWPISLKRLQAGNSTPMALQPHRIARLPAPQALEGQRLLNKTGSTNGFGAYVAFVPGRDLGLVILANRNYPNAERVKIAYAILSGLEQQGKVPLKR

E. cloacae = assay: inhibition zone diameter, third-generation cephalosporin combined with inhibitor; format: cell-based
Source text: Die erfindungsgemässen Verbindungen sind in der Lage, schon in geringen Konzentrationen die Hemmwirkung aller untersuchter Penicilline wie z. B. Amoxycillin, Piperacillin, Mezlocillin oder Cephalosporine wie z. B. Cefaclor, Cefoperazon gegen Betalactamase-bildende Bakterien zu verstärken. Auch gemeinhin als Betalactamase-stabile geltende Cephalosporine der dritten Generation wie z. B. Cefotaxim oder Ceftriaxon (je 3O mcg) ergaben in der Kombination mit Ie (1O mcg) erstmals deutliche Hemmhöfe vom Durchmesser 27 bzw. 26 mm gegen E. cloacae. Die erfindungsgemässen Verbindungen sind stark wirksam gegen Penicillinasen und Cephalosporinasen.

[4] = target: T1, Cephalosporinasen aus Enterobacter cloacae; assay: beta-lactamase inhibitor activity against cephalosporinase producer; conditions: requires partner antibiotic able to enter the bacterium
[5] = target: T2, Cephalosporinasen aus Pseudomonas aeruginosa; assay: as above; conditions: requires partner antibiotic able to enter the bacterium

## CC(C)(C)C1=C(C(=O)O)N2C(=O)[C@H](CO)[C@H]2O1 (racemic) [Ia, 2-tert-Butyl-6-hydroxymethyloxapenem-3-carbonsäure (K-Salz)]
E. coli TEM 1
  zone of inhibition at 10 µg/disc: 17 mm
  Hemmhofzuwachs, d.h. die Schutzwirkung: vergleichsweise gering
  Eigenwirkung als Antibiotika: gute Eigenwirkung
[1]
  Wirksamkeit in der Kombination mit Mezlocillin: wirksamer als Clavulansäure
Pseudomonas aeruginosa
  Wirksamkeit in der Kombination mit Mezlocillin: wirksamer als Clavulansäure

## C[C@H](O)[C@H]1C(=O)N2C(C(=O)O)=C(C(C)(C)C)O[C@H]12 (racemic) [Ib, racemischer trans-2-tert-Butyl-6-(unlike-hydroxyethyl)oxapenem-3-carbonsäure]
E. coli TEM 1
  zone of inhibition at 10 µg/disc: 0 mm
  Wirkung als Betalactamasehemmer gegen E. coli TEM 1: besonders gute Wirkung

## C[C@H](O)[C@H]1C(=O)N2C(C(=O)O)=C(C(C)(C)C)O[C@@H]12 (racemic) [Ic, racemischer cis-2-tert-Butyl-6-(unlike-hydroxyethyl)oxapenem-3-carbonsäure]
E. coli TEM 1
  zone of inhibition at 10 µg/disc: 9 mm

## N[C@@H](C(=O)N[C@@H]1C(=O)N2C(C(=O)O)=C(Cl)CS[C@H]12)c1ccccc1 [Cefaclor, reference compound]
E. coli TEM 1; Cefaclor allein (3O mcg)
  Hemmhof: 16 mm

## O=C(O)[C@H]1/C(=C/CO)O[C@@H]2CC(=O)N21 [Clavulansäure]
E. coli TEM 1; Cefaclor 3O mcg combined with 1O mcg Clavulansäure
  Hemmhof Durchmesser: 22 mm
[2]
  Wirkung gegen Cephalosporinasen: nicht
[3]
  Wirkung gegen Cephalosporinasen: nicht

## C[C@@H](O)[C@H]1C(=O)N2C(C(=O)O)=C(C(C)(C)C)O[C@H]12 [Id]
E. coli TEM 1
  zone of inhibition at 10 µg/disc: 23 mm
  Hemmhofzuwachs, d.h. die Schutzwirkung: vergleichsweise gering
  Eigenwirkung als Antibiotika: gute Eigenwirkung

## C[C@H](O)[C@H]1C(=O)N2C(C(=O)O)=C(C(C)(C)C)O[C@H]12 [Ie, (5R,6R)-2-tert-Butyl-((1S)-hydroxyethyl)oxapenem-3-carbonsäure (K-Salz)]
E. coli TEM 1
  zone of inhibition at 10 µg/disc: 0 mm
  Wirkung als Betalactamasehemmer gegen E. coli TEM 1: besonders gute Wirkung
E. cloacae; Cefotaxim 3O mcg combined with Ie 1O mcg
  Hemmhöfe vom Durchmesser: 27 mm
E. cloacae; Ceftriaxon 3O mcg combined with Ie 1O mcg
  Hemmhöfe vom Durchmesser: 26 mm
[4]
  Wirkung als Betalactamasehemmer: wirksam
[5]
  Wirkung als Betalactamasehemmer: wirksam
